# Results taken from patent US20090270342A1, “IMMUNOREGULATORY AGENT” (priority 2006, published 2009).
# Legend:
# spleen cells = assay: Cytokine production by spleen cells of OVA-sensitized mice restimulated with OVA (Experiment 6); assay type: in vivo
# Protocol: In order to investigate the effect of lactosucrose on systemic immunity, the ability for producing cytokines of spleen cells was measured. At two weeks after the second sensitization in Experiment 4, spleens were removed from the mice of the control group and the group administrated with lactosucrose and the spleen cells were adjusted to give a cell concentration of 1×10^7/ml, and then placed in a 24-well plate. At two days or four days after adding 50 μg/ml of OVA, the amounts of IFN-γ, interleukin-2 (IL-2), IL-4, interleukin-5 (IL-5), and IL-10 in the culture supernatant were determined by conventional EIAs using antibodies (commercialized by BD-Pharmingen) corresponding to those. The percentages in parentheses in Table 9 mean relative values to the concentrations of respective cytokines produced by spleen cells from the control mice.
# [1] = test system: anti-OVA-IgE, IgG1, IgG2a in serum; assay: Induction of anti-OVA antibodies by third OVA sensitization in already sensitive mice (Experiment 7); assay type: in vivo; details: for Anti-OVA-IgE in serum / Anti-OVA-IgG1 in serum / Anti-OVA-IgG2a in serum: two weeks after third sensitization of OVA-sensitive mice; for Anti-OVA-IgE in serum, relative to control / Anti-OVA-IgG1 in serum, relative to control / Anti-OVA-IgG2a in serum, relative to control: after third sensitization
# Protocol: In order to investigate the effect of lactosucorse on systemic immunity, antibody level in serum was measured. Similarly as in Experiment 1, female BALB/c mice (six weeks old) were preliminary reared for one week on “AIN-93G”, the same standard purified diet as used in Experiment 1. Successively, “NYU-KA OLIGO 700”, a saccharide composition comprising 71.4% (w/w), on a dry solid basis, of lactosucrose commercialized by Hayashibara Shoji Inc., Okayama, Japan, was incorporated into the above purified diet, in which corn starch equal to the amount of the saccharide composition comprising lactosucrose had been removed, to give a lactosucrose content of 2% (w/w) or 5% (w/w), and five to seven mice/group were allowed to ingest the resulting test diet freely. Mice, allowed to ingest “AIN-93G”, as the standard purified diet, were used as control. At 10 days after from starting the administration of the test diet, mice were sensitized to antigen by administrating 20 μg of ovalbumin (OVA) (grade V, commercialized by Sigma Corporation) as antigen and 4.5 mg of “IMJECT®”, alum commercialized by Pierce ThermoScientific as adjuvant, into the peritoneal cavity. Successively, 15 days after from the first sensitization, the second sensitization was carried out by the same procedure. The blood was collected from caudal vein of mice at one, two, and three weeks after from the second sensitization, the serum was collected by centrifugation, and the amount of IgE to OVA was measured by EIA. In the cases of IgG1 and IgG2a, the amount of antibody was measured using serum collected at two weeks after from the second sensitization. The IgE and IgG2a titers were measured by capture EIA and IgG1 titer was measured by indirect EIA. Each titer was calculated by calibration curve prepared by using anti-OVA mouse serum (IgE: 1.760 U/ml, IgG1: 128,000 U/ml, IgG2a: 7,040 u/ml) as a standard serum. The amounts of IgE at one, two, or three weeks after from the second sensitization are in Table 5, and the amounts of IgG1 and IgG2a of two weeks after from the second sensitization are in Table 6. The percentages in parentheses in tables mean a relative value to the antibody concentration in serum of the control mice.
# Considering the application of lactosucrose to allergic patients, mice which had been made sensitive to OVA by sensitizing with OVA were prepared and the suppressing effect of lactosucrose on the production of anti-OVA-IgE when exposed to OVA was investigated by allowing the above mice to ingest lactosucrose. Female BALB/c mice (six weeks old, five mice/group) were preliminary reared for one week on “AIN-93G”, the same standard purified diet as used in Experiment 1. Successively, similarly as in Experiment 4, 20 μg of OVA, and 4.5 mg of alum were administrated to the peritoneal cavity of the mice and further reared for two weeks on the above standard diet. Then, the second sensitization of OVA and alum was carried out by the same procedure as used in the first sensitization. After two weeks, the mice were reared for further six weeks on the test diet comprising 2% (w/w) or 5% (w/w) lactosucrose, used in Experiment 1. After checking the mice being sensitive to OVA by measuring the amount of IgE, OVA and alum were administrated to them by the same procedure as used in the first and second sensitizations. After rearing two weeks on the test diet, blood was collected from respective mice and the concentrations of anti-OVA-IgE, anti-OVA-IgG1, and anti-OVA-IgG2a were determined by the same method as used in Experiment 4.
# [2] = in vivo; cited from earlier work
# [3] = Lactosucrose 5% (w/w) diet, 2 days after adding 50 μg/ml OVA
# [4] = Lactosucrose 5% (w/w) diet, 4 days after adding 50 μg/ml OVA
# [5] = Lactosucrose 5% (w/w), 2 days after
# [6] = Lactosucrose 5% (w/w), 4 days after
# [7] = Lactosucrose 5% (w/w), listed as lactosucrose
smiles,measurement,setting,value
"OC[C@H]1O[C@@H](O[C@H]2[C@H](O)[C@@H](O)[C@@H](O[C@]3(CO)O[C@H](CO)[C@@H](O)[C@@H]3O)O[C@@H]2CO)[C@H](O)[C@@H](O)[C@H]1O [Lactosucrose, β-D-galactosyl-(1,4)-α-D-glucosyl-(1,2)-β-D-fructoside]",IFN-γ produced by spleen cells,spleen cells; [3],1.1 ± 0.19 IU/ml
same,IL-2 produced by spleen cells,spleen cells; [3],290 ± 160 pg/mL
same,IL-4 produced by spleen cells,spleen cells; [3],32 ± 10 pg/mL
same,IL-10 produced by spleen cells,spleen cells; [3],0.83 ± 0.27 ng/mL
same,IFN-γ produced by spleen cells,spleen cells; [4],2.9 ± 0.91 IU/ml
same,IL-4 produced by spleen cells,spleen cells; [4],62 ± 31 pg/mL
same,IL-5 produced by spleen cells,spleen cells; [4],1.3 ± 0.32 ng/mL
same,IL-10 produced by spleen cells,spleen cells; [4],2.7 ± 0.32 ng/mL
same,"IFN-γ produced by spleen cells, relative value to control",spleen cells; [5],(113%)
same,"IL-2 produced by spleen cells, relative value to control",spleen cells; [5],(78%)
same,"IL-4 produced by spleen cells, relative value to control",spleen cells; [5],(107%)
same,"IL-10 produced by spleen cells, relative value to control",spleen cells; [5],(126%)
same,"IFN-γ produced by spleen cells, relative value to control",spleen cells; [6],(88%)
same,"IL-4 produced by spleen cells, relative value to control",spleen cells; [6],(63%)
same,"IL-5 produced by spleen cells, relative value to control",spleen cells; [6],(81%)
same,"IL-10 produced by spleen cells, relative value to control",spleen cells; [6],(123%)
same,Anti-OVA-IgE in serum,[1]; Lactosucrose 2% (w/w) diet,"1,450 ± 561 U/ml"
same,Anti-OVA-IgG1 in serum,[1]; Lactosucrose 2% (w/w) diet,678 ± 176 ×10^4 U/ml
same,Anti-OVA-IgG2a in serum,[1]; Lactosucrose 2% (w/w) diet,12.4 ± 5.02 ×10^4 U/ml
same,"Anti-OVA-IgE in serum, relative to control",[1]; Lactosucrose 2% (w/w),(72%)
same,"Anti-OVA-IgG1 in serum, relative to control",[1]; Lactosucrose 2% (w/w),(111%)
same,"Anti-OVA-IgG2a in serum, relative to control",[1]; Lactosucrose 2% (w/w),(120%)
same,"Anti-OVA-IgE in serum, relative to control","[1]; Lactosucrose 2% (w/w), listed as lactosucrose",72%
same,Anti-OVA-IgE in serum,[1]; Lactosucrose 5% (w/w) diet,"1,250 ± 264 U/ml"
same,Anti-OVA-IgG1 in serum,[1]; Lactosucrose 5% (w/w) diet,365 ± 35.1 ×10^4 U/ml
same,Anti-OVA-IgG2a in serum,[1]; Lactosucrose 5% (w/w) diet,5.77 ± 1.93 ×10^4 U/ml
same,"Anti-OVA-IgE in serum, relative to control",[1]; Lactosucrose 5% (w/w),(62%)
same,"Anti-OVA-IgG1 in serum, relative to control",[1]; Lactosucrose 5% (w/w),(60%)
same,"Anti-OVA-IgG2a in serum, relative to control",[1]; Lactosucrose 5% (w/w),(56%)
same,"Anti-OVA-IgE in serum, relative to control",[1]; [7],62%
same,"Anti-OVA-IgG1 in serum, relative to control",[1]; [7],about 50%
same,"Anti-OVA-IgG2a in serum, relative to control",[1]; [7],about 50%
same,Effect of a dose higher than the maximum dose without harmful effect,[2],causes diarrhea
same,Maximum dose of lactosucrose without harmful effect,[2],0.6-0.8 g/kg-body weight
